In patent US8304601B2, “Mouse model for eye disease” (priority 2007, dated 2012):
Where a name gives a salt, the structure may show the parent alone.

How the values were obtained:
Assay type in all cases: in vivo
Vav2^ko mouse [1] = assay: Intraocular pressure after Y-27632 eye drop, Test Example 3; conditions: 7-week old Vav2^ko; 3 μL of 1 mM/PBS solution to eye; one hour after administration
Description: (§1) For No. 20 of each of the 7-week old Vav2/3^ko, Vav2^ko and Vav3^ko, intraocular pressure was measured between 10 o'clock in the morning and noon by using a Tonometer and then 3 μL of 1 mM/PBS solution of Y-27632 (Calbiochem), which is an inhibitor for Rho-associated protein kinase and has been reported to have an activity of reducing intraocular pressure by acting on an outflow tract for aqueous humor, or 3 μL of PBS solution was applied to an eye. One hour after the administration, the intraocular pressure was measured again.

Vav3^ko mouse = assay: as above; conditions: 7-week old Vav3^ko; 3 μL of 1 mM/PBS solution to eye; one hour after administration
Description: as §1

Vav2/3^ko mouse [2] = assay: as above; conditions: 7-week old Vav2/3^ko; 3 μL of 1 mM/PBS solution to eye; one hour after administration
Description: as §1

Vav2/3^ko mouse [3] = assay: Intraocular pressure after eye-drop administration, Example 5; conditions: for Ratio of effect on intraocular pressure: Vav2/3^ko
Description: (§2) For the No. 20 animal of each of the 7-week old Vav2/3^ko and Vav2^ko, intraocular pressure was measured between 10 o'clock in the morning and noon by using a Tonometer. Then, 3 μL solution containing 0.02% benzalkonium chloride, 0.5% NaH2PO4, 0.6% Na2HPO4, 0.4% sodium chloride and 0.005% Latanoprost (manufactured by Cayman Chemical), or solution having the same composition except that no latanoplast was contained was applied to an eye of the animal based on a blind testing method. Three hours later, the intraocular pressure was measured again. In addition, to Vav2/3^ko, 3 μL eye-drop solution containing timolol maleate (Trade name; Timoptol, Merck Company, USA, 0.5% solution), or 3 μL eye-drop solution containing dorzolamide hydrochloride (Trade name; Trusopt, Merck Company, USA, 1% solution), both having a different mechanism for reducing intraocular pressure compared to latanoprost, was applied instead of the solution containing latanoprost as described above. Two hours after the application, change in the intraocular pressure was measured.

Vav2^ko mouse [4] = assay: as above; conditions: 7-week old Vav2^ko
Description: as §2

Vav2/3^ko mouse [5] = assay: Intraocular pressure after latanoprost eye drop, Example 4; conditions: 8- to 9-week old Vav2/3^ko mouse; 3 μL 0.01%/PBS applied; three hours later; vs PBS control
Description: For the 8- to 9-week old Vav2/3^ko mouse (No. 12), intraocular pressure was measured between 10 o'clock in the morning and noon by using a Tonometer. Then, 3 μL of latanoplast (0.01%/PBS, manufactured by Cayman Chemical) of a prostaglandin derivative as a therapeutic agent for glaucoma was applied and the intraocular pressure was measured again three hours later. As a control, a group administered only with PBS was prepared at the same time, and analysis was carried out based on Student's t-test (P<0.05). […] Therefore, it was confirmed that the mouse of the present invention is a useful model for evaluation of a therapeutic agent for glaucoma.

[6] = 3 μL eye-drop solution (timolol maleate 0.5%, dorzolamide hydrochloride 1%), two hours after application

C[C@@H](N)[C@H]1CC[C@H](C(=O)Nc2ccncc2)CC1 [Y-27632]
activity of reducing the intraocular pressure (Vav2^ko mouse [1]): did not show any activity of reducing the intraocular pressure | activity of reducing the intraocular pressure (Vav3^ko mouse): did not show any activity of reducing the intraocular pressure | activity of reducing the intraocular pressure (Vav2/3^ko mouse [2]): did not show any activity of reducing the intraocular pressure

CCN[C@H]1C[C@H](C)S(=O)(=O)c2sc(S(N)(=O)=O)cc21 [dorzolamide hydrochloride]
Ratio of effect on intraocular pressure (Vav2/3^ko mouse [3]; [6]): 20%

CC(C)OC(=O)CCC/C=C\C[C@@H]1[C@@H](CC[C@@H](O)CCc2ccccc2)[C@H](O)C[C@@H]1O [latanoprost]
intraocular pressure three hours after administration (Vav2^ko mouse [4]; 3 μL 0.005% solution to eye, three hours later, P<0.01): 14.5 mmHg | intraocular pressure before administration (Vav2^ko mouse [4]; before eye drop of 3 μL 0.005% solution): 17.4 mmHg | intraocular pressure three hours after administration (Vav2/3^ko mouse [3]; 7-week old Vav2/3^ko, 3 μL 0.005% solution to eye, three hours later, P<0.01): 15.8±5.1 mmHg | intraocular pressure twenty four hours after eye drop administration (Vav2/3^ko mouse [3]; 7-week old Vav2/3^ko, 3 μL 0.005% solution, twenty four hours after): came back to the high value which is the same as the one before the eye drop administration | intraocular pressure before administration (Vav2/3^ko mouse [3]; 7-week old Vav2/3^ko, before eye drop of 3 μL 0.005% solution): 26.3±5.0 mmHg | Ratio of effect on intraocular pressure (Vav2/3^ko mouse [3]; 3 μL 0.005% latanoprost solution, three hours later): about 40% | intraocular pressure change (Vav2/3^ko mouse [5]): reduced

CC(C)(C)NC[C@H](O)COc1nsnc1N1CCOCC1 [timolol maleate]
Ratio of effect on intraocular pressure (Vav2/3^ko mouse [3]; [6]): 15%
